According to patent US20230085307A1, “PYRIDAZINONE COMPOUND AND HERBICIDE” (NISSAN CHEMICAL CORPORATION, priority 2019, published 2023):

Columns and labels:
lambsquarters [1] = test: Test Example 5: herbicidal effect by foliage application, plastic box (Table 20, symbol O); assay type: in vivo, lambsquarters (Chenopodium album); conditions: foliage application, 3 weeks after application
In short: (§1)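 Plants were sown into sterilized diluvial soil under about 1.5 cm cover and kept in a greenhouse at 25° C. to 30° C. Fourteen days on, foliage received an even spray of the diluted emulsion. Herbicidal or crop effect was judged three weeks afterwards.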

persian speedwell = test: Test Example 4: herbicidal effect by soil treatment (Table 19, symbol R); assay type: in vivo, Persian speedwell (Veronica persica)
In short: (§2)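 Pre-emergence style soil spray: seeds under ~1.5 cm sterilized diluvial soil received a uniform coat of emulsion diluted to the predetermined herbicide amount. Greenhouse 25–30° C; readout at week three on previously defined criteria.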

velvetleaf [2] = test: Test Example 5: herbicidal effect by foliage application, plastic box (Table 20, symbol M); assay type: in vivo, velvetleaf (Abutilon theophrasti); conditions: foliage application, 3 weeks after application
In short: as §1

late watergrass [3] = test: Test Example 1: herbicidal activity, application before weed generation under submerged conditions (Table 16, symbol A); assay type: in vivo, late watergrass (Echinochloa oryzicola)
In short: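 Submerged Wagner pots (alluvial soil, 4 cm water) sown with weed seeds and planted with 2.5-leaf rice seedlings; emulsifiable concentrate diluted in water applied to water surface on sowing day. Held in greenhouse at 25-30 °C; injury scored 0-5 by herbicidal rate after three weeks.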

velvetleaf [4] = test: Test Example 4: herbicidal effect by soil treatment (Table 19, symbol M); assay type: in vivo, velvetleaf (Abutilon theophrasti)
In short: as §2

windgrass = test: Test Example 4: herbicidal effect by soil treatment (Table 19, symbol L); assay type: in vivo, windgrass (Apera spica-venti)
In short: as §2

late watergrass [5] = test: Test Example 2: herbicidal activity, application during weed generation under submerged conditions (Table 17, symbol A); assay type: in vivo, late watergrass (Echinochloa oryzicola); conditions: application during weed generation, submerged conditions
In short: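 Wagner pot, alluvial soil, 4 cm flood; mixed sowing of all species; greenhouse 25° C.–30° C. Emulsifiable formulation, water-diluted to predetermined dose, applied to paddy water at 1–2 leaf stage. Effect rated at 3 wk using the earlier test's scoring criteria.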

Chinese sprangletop = test: Test Example 3: herbicidal effect by foliage application, Wagner pot (Table 18, symbol D); assay type: in vivo, chinese sprangletop (Leptochloa chinensis)
In short: (§3)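 Plants were sown in alluvial soil held under 0.1–0.5 cm standing water and grown 14 days in a greenhouse at 25–30 °C. An emulsifiable formulation, water-diluted to the set dose, was then sprayed onto the foliage, and effects were scored three weeks later using previously defined criteria.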

southern crabgrass = test: Test Example 4: herbicidal effect by soil treatment (Table 19, symbol F); assay type: in vivo, southern crabgrass (Digitaria ciliaris)
In short: as §2

Italian ryegrass [6] = test: Test Example 5: herbicidal effect by foliage application, plastic box (Table 20, symbol K); assay type: in vivo, Italian ryegrass (Lolium multiflorum); conditions: foliage application, 3 weeks after application
In short: as §1

lambsquarters [7] = test: Test Example 4: herbicidal effect by soil treatment (Table 19, symbol O); assay type: in vivo, lambsquarters (Chenopodium album)
In short: as §2

Italian ryegrass [8] = test: Test Example 4: herbicidal effect by soil treatment (Table 19, symbol K); assay type: in vivo, Italian ryegrass (Lolium multiflorum)
In short: as §2

barnyard grass = test: Test Example 3: herbicidal effect by foliage application, Wagner pot (Table 18, symbol H); assay type: in vivo, barnyard grass (Echinochloa crus-galli)
In short: as §3

blackgrass [9] = test: Test Example 4: herbicidal effect by soil treatment (Table 19, symbol J); assay type: in vivo, blackgrass (Alopecurus myosuroides)
In short: as §2

blackgrass [10] = test: Test Example 5: herbicidal effect by foliage application, plastic box (Table 20, symbol J); assay type: in vivo, blackgrass (Alopecurus myosuroides); conditions: foliage application, 3 weeks after application
In short: as §1

Row | Compound | effect on lambsquarters (O) (lambsquarters [1]; 320 g/ha) | R: persian speedwell, herbicidal effect rating (persian speedwell; AAH 320 g/ha) | effect on velvetleaf (M) (velvetleaf [2]; 320 g/ha) | Herbicidal effect on A: late watergrass (grade 0-5) (late watergrass [3]; 320 g/ha applied herbicide) | M: velvetleaf, herbicidal effect rating (velvetleaf [4]; AAH 320 g/ha) | L: windgrass, herbicidal effect rating (windgrass; AAH 320 g/ha) | herbicidal effect rating, A: late watergrass (late watergrass [5]; AAH 320 g/ha) | herbicidal effect on D (Chinese sprangletop), rating 0-5 (Chinese sprangletop; 320 g/ha) | F: southern crabgrass, herbicidal effect rating (southern crabgrass; AAH 320 g/ha) | effect on Italian ryegrass (K) (Italian ryegrass [6]; 320 g/ha) | O: lambsquarters, herbicidal effect rating (lambsquarters [7]; AAH 320 g/ha) | K: Italian ryegrass, herbicidal effect rating (Italian ryegrass [8]; AAH 320 g/ha) | herbicidal effect on H (barnyard grass), rating 0-5 (barnyard grass; 320 g/ha) | J: blackgrass, herbicidal effect rating (blackgrass [9]; AAH 320 g/ha) | effect on blackgrass (J) (blackgrass [10]; 320 g/ha) | also measured
1 | Cc1nn(C)c(=O)c(-c2c(-c3ccc(OCCC(F)(F)F)cc3)sc3ccccc23)c1O [1-206] | 5 (Herbicidal rate of 90% or more (almost completely withered)) | 5 (Herbicidal rate of 90% or more (almost completely withered)) | 5 (Herbicidal rate of 90% or more (almost completely withered)) | 5 (Herbicidal rate of 90% or more (almost completely withered)) | 3 (Herbicidal rate of 40% or more and less than 70%) | 3 (Herbicidal rate of 40% or more and less than 70%) | 5 (Herbicidal rate of 90% or more (almost completely withered)) | 5 (Herbicidal rate of 90% or more (almost completely withered)) | 4 (Herbicidal rate of 70% or more and less than 90%) | 5 (Herbicidal rate of 90% or more (almost completely withered)) | 5 (Herbicidal rate of 90% or more (almost completely withered)) | 5 (Herbicidal rate of 90% or more (almost completely withered)) | 5 (Herbicidal rate of 90% or more (almost completely withered)) | 4 (Herbicidal rate of 70% or more and less than 90%) | 5 (Herbicidal rate of 90% or more (almost completely withered)) | –
2 | C=C(C)COc1ccc(-c2sc3ccccc3c2-c2c(O)c(C)nn(C)c2=O)cc1 [1-208] | 5 (Herbicidal rate of 90% or more (almost completely withered)) | 5 (Herbicidal rate of 90% or more (almost completely withered)) | 5 (Herbicidal rate of 90% or more (almost completely withered)) | 5 (Herbicidal rate of 90% or more (almost completely withered)) | 0 (Herbicidal rate of 5% or less (almost no effect)) | 0 (Herbicidal rate of 5% or less (almost no effect)) | 5 (Herbicidal rate of 90% or more (almost completely withered)) | 5 (Herbicidal rate of 90% or more (almost completely withered)) | 0 (Herbicidal rate of 5% or less (almost no effect)) | 5 (Herbicidal rate of 90% or more (almost completely withered)) | 0 (Herbicidal rate of 5% or less (almost no effect)) | 4 (Herbicidal rate of 70% or more and less than 90%) | 5 (Herbicidal rate of 90% or more (almost completely withered)) | 0 (Herbicidal rate of 5% or less (almost no effect)) | 4 (Herbicidal rate of 70% or more and less than 90%) | –
3 | C=C(Br)COc1ccc(-c2sc3ccccc3c2-c2c(O)c(C)nn(C)c2=O)cc1 [1-215] | 5 (Herbicidal rate of 90% or more (almost completely withered)) | 3 (Herbicidal rate of 40% or more and less than 70%) | 5 (Herbicidal rate of 90% or more (almost completely withered)) | 5 (Herbicidal rate of 90% or more (almost completely withered)) | 0 (Herbicidal rate of 5% or less (almost no effect)) | 0 (Herbicidal rate of 5% or less (almost no effect)) | 3 (Herbicidal rate of 40% or more and less than 70%) | 5 (Herbicidal rate of 90% or more (almost completely withered)) | 0 (Herbicidal rate of 5% or less (almost no effect)) | 4 (Herbicidal rate of 70% or more and less than 90%) | 3 (Herbicidal rate of 40% or more and less than 70%) | 0 (Herbicidal rate of 5% or less (almost no effect)) | 5 (Herbicidal rate of 90% or more (almost completely withered)) | 0 (Herbicidal rate of 5% or less (almost no effect)) | 2 (Herbicidal rate of 20% or more and less than 40%) | –
4 | Cc1nn(C)c(=O)c(-c2c(-c3ccc(OCCC4OCCO4)cc3)sc3ccccc23)c1O [1-223] | – | – | – | – | – | – | – | – | – | – | – | – | – | – | – | effect on lambsquarters (O) (lambsquarters [1]; 246 g/ha): 5 (Herbicidal rate of 90% or more (almost completely withered)); R: persian speedwell, herbicidal effect rating (persian speedwell; AAH 246 g/ha): 0 (Herbicidal rate of 5% or less (almost no effect)); effect on velvetleaf (M) (velvetleaf [2]; 246 g/ha): 5 (Herbicidal rate of 90% or more (almost completely withered)); Herbicidal effect on A: late watergrass (grade 0-5) (late watergrass [3]; 246 g/ha applied herbicide): 5 (Herbicidal rate of 90% or more (almost completely withered)); M: velvetleaf, herbicidal effect rating (velvetleaf [4]; AAH 246 g/ha): 0 (Herbicidal rate of 5% or less (almost no effect)); L: windgrass, herbicidal effect rating (windgrass; AAH 246 g/ha): 0 (Herbicidal rate of 5% or less (almost no effect)); herbicidal effect rating, A: late watergrass (late watergrass [5]; AAH 246 g/ha): 3 (Herbicidal rate of 40% or more and less than 70%); herbicidal effect on D (Chinese sprangletop), rating 0-5 (Chinese sprangletop; 246 g/ha): 5 (Herbicidal rate of 90% or more (almost completely withered)); F: southern crabgrass, herbicidal effect rating (southern crabgrass; AAH 246 g/ha): 0 (Herbicidal rate of 5% or less (almost no effect)); effect on Italian ryegrass (K) (Italian ryegrass [6]; 246 g/ha): 3 (Herbicidal rate of 40% or more and less than 70%); O: lambsquarters, herbicidal effect rating (lambsquarters [7]; AAH 246 g/ha): 3 (Herbicidal rate of 40% or more and less than 70%); K: Italian ryegrass, herbicidal effect rating (Italian ryegrass [8]; AAH 246 g/ha): 0 (Herbicidal rate of 5% or less (almost no effect)); herbicidal effect on H (barnyard grass), rating 0-5 (barnyard grass; 246 g/ha): 5 (Herbicidal rate of 90% or more (almost completely withered)); J: blackgrass, herbicidal effect rating (blackgrass [9]; AAH 246 g/ha): 0 (Herbicidal rate of 5% or less (almost no effect)); effect on blackgrass (J) (blackgrass [10]; 246 g/ha): 2 (Herbicidal rate of 20% or more and less than 40%)
5 | CSCCSCc1ccc(-c2sc3ccccc3c2-c2c(O)c(C)nn(C)c2=O)cc1 [1-253] | 5 (Herbicidal rate of 90% or more (almost completely withered)) | 5 (Herbicidal rate of 90% or more (almost completely withered)) | 5 (Herbicidal rate of 90% or more (almost completely withered)) | 3 (Herbicidal rate of 40% or more and less than 70%) | 0 (Herbicidal rate of 5% or less (almost no effect)) | 0 (Herbicidal rate of 5% or less (almost no effect)) | 3 (Herbicidal rate of 40% or more and less than 70%) | 3 (Herbicidal rate of 40% or more and less than 70%) | 0 (Herbicidal rate of 5% or less (almost no effect)) | 4 (Herbicidal rate of 70% or more and less than 90%) | 3 (Herbicidal rate of 40% or more and less than 70%) | 0 (Herbicidal rate of 5% or less (almost no effect)) | 5 (Herbicidal rate of 90% or more (almost completely withered)) | 0 (Herbicidal rate of 5% or less (almost no effect)) | 0 (Herbicidal rate of 5% or less (almost no effect)) | –
